Laboratory results as given in publication PMC4923153, “Protection of Primary Dopaminergic Midbrain Neurons by GPR139 Agonists Supports Different Mechanisms of MPP^+ and Rotenone Toxicity” (Frontiers in Cellular Neuroscience, 2016).
Several values for one entry are separate records, joined by “and”; a condition that tells them apart may be missing. Identical values can stand only once. Like-named read-outs stand apart in the source and are kept apart here.

What was measured:
[1] = system: differentiated SH-SY5Y neurons; conditions: 24 h incubation; ref Giordano et al., 2012; cited from earlier work
[2] = system: SH-SY5Y cells; design: method as in Song et al., 2012; conditions: ref Song et al., 2012; cited from earlier work
[3] = system: primary DA midbrain neurons; format: cell-based, mice; conditions: 24 h
Experimental: Experiments were conducted in accordance with the ethical guidelines of H. Lundbeck A/S and the Danish legislation of animal use for scientific procedures. Cell culture was basically performed as described (Nagel et al., [2008]), with few modifications. Briefly, the mesencephalon floor was dissected from embryonic day (E) 13 mice, tissue pieces collected in HBBS, transferred to 0.1% trypsin, 0.05% DNAse (Sigma-Aldrich DN25–1G) and incubated at 37°C in a humidified atmosphere with 5% CO2 for 20 min; washed in DNAse, homogenized and centrifuged at 200× g, resuspended in medium (DMEM (Gibco 41965–039), 10% FCS, 1% P/S (Gibco, 15140–122), l.5% HEPES (Gibco, 15630–056), 1% Sodium Pyruvate (Gibco, 11360–039)) and plated on poly-L-lysine coated 96-well dishes. The medium was switched to neurobasal medium after 90 min (neurobasal (Gibco 21103–049) with 1% P/S, 2% B27 (Gibco, 17504–044), 1.25% 0.5 mM L-glutamine (Gibco, 25030–024)). […] Plates were stored at 4°C until tyrosine-hydroxylase-positive (TH-positive) neurons were counted using a Thermo Scientific Cellomics® ArrayScan® VTI HCS Reader. […] To ensure that only healthy primary cultures were assessed, we furthermore excluded experiments with total cell counts below Mean minus standard deviation (SD) of the summarized experiments. […]

[4] = biological target: norepinephrine transporter (Homo sapiens, UniProt P23975); design: method as in Shi et al., 2011; conditions: 10 μM; ref Shi et al., 2011; cited from earlier work
[5] = system: primary DA midbrain neurons; test: Protection of primary DA midbrain neurons against 6-OHDA toxicity (TH-positive neuron count); format: cell-based, mice; conditions: 1 μM agonist 1 h, 0-50 μM 6-OHDA 24 h
Experimental: (§1) Experiments were conducted in accordance with the ethical guidelines of H. Lundbeck A/S and the Danish legislation of animal use for scientific procedures. Cell culture was basically performed as described (Nagel et al., [2008]), with few modifications. […] Plates were stored at 4°C until tyrosine-hydroxylase-positive (TH-positive) neurons were counted using a Thermo Scientific Cellomics® ArrayScan® VTI HCS Reader. […] To ensure that only healthy primary cultures were assessed, we furthermore excluded experiments with total cell counts below Mean minus standard deviation (SD) of the summarized experiments. […]
Neuronal midbrain cultures were pretreated with 1 μM of either one of the agonists compound 1 ( [drawing 9] ), compound 2 ( [drawing 10] ), or compound 3 ( [drawing 11] ), or vehicle ( [drawing 12] ) for 1 h, followed by treatment with the indicated concentrations of 6-hydroxydopamine (6-OHDA) for 24 h. TH-positive neurons were counted and normalized to control numbers.

[6] = system: primary DA midbrain neurons; test: Protection of primary DA midbrain neurons against rotenone toxicity (TH-positive neuron count); format: cell-based, mice; conditions: 1 μM agonist 1 h, 0-100 nM rotenone 24 h, n = 4
Experimental: as §1
Mesencephalic cultures were treated with 1 μM of either one of the GPR139 agonists compound 1 ( [drawing 13] ), compound 2 ( [drawing 14] ), or compound 3 ( [drawing 15] ), or vehicle ( [drawing 16] ) for 1 h before exposing them to 0–100 nM of rotenone. […] TH-positive neurons were counted and normalized to control numbers (100%).

[7] = biological target: DAT (Homo sapiens, UniProt Q01959); design: method as in Shi et al., 2011; conditions: 10 μM; ref Shi et al., 2011; cited from earlier work
[8] = system: primary DA midbrain neurons; test: Protection of primary DA midbrain neurons against MPP+ toxicity (TH-positive neuron count); format: cell-based, mice
Experimental: Experiments were conducted in accordance with the ethical guidelines of H. Lundbeck A/S and the Danish legislation of animal use for scientific procedures. Cell culture was basically performed as described (Nagel et al., [2008]), with few modifications. Briefly, the mesencephalon floor was dissected from embryonic day (E) 13 mice, tissue pieces collected in HBBS, transferred to 0.1% trypsin, 0.05% DNAse (Sigma-Aldrich DN25–1G) and incubated at 37°C in a humidified atmosphere with 5% CO2 for 20 min; washed in DNAse, homogenized and centrifuged at 200× g, resuspended in medium (DMEM (Gibco 41965–039), 10% FCS, 1% P/S (Gibco, 15140–122), l.5% HEPES (Gibco, 15630–056), 1% Sodium Pyruvate (Gibco, 11360–039)) and plated on poly-L-lysine coated 96-well dishes. The medium was switched to neurobasal medium after 90 min (neurobasal (Gibco 21103–049) with 1% P/S, 2% B27 (Gibco, 17504–044), 1.25% 0.5 mM L-glutamine (Gibco, 25030–024)). After 6 days in vitro (DIV), cultures were treated with 1 μM of three different GPR139 agonists and in some experiments, concomitantly, with 10 μM of the antagonist for1 h, before exposing them to 0–1 μM MPP^+, 0–50 μM 6-OHDA or 0–100 nM rotenone for 24 h. For the MPP^+ treated cultures, it was also tested whether the effect of the GPR139 agonists could be blocked by concomitantly applying 10 μM GPR139 antagonist (IC50 3 μM). Subsequently, cells were fixed in 4% PFA/PBS for 10 min, washed with PBS, incubated in 0.5% BSA/0.1% Triton-X/5% porcine serum for 20 min, and incubated for 24 h in rabbit anti-tyrosine hydroxylase antibodies (1:1000 in PBS, Millipore AB152); washed 2 × 5 min in PBS. Secondary antibodies (Alexa 488 rabbit) were applied 1:200 in PBS with 0.2 μg/ml Hoechst dye for 1 h and washed 2 × 5 min in PBS. One drop of DAKO fluorescent mounting medium were applied into each well. Plates were stored at 4°C until tyrosine-hydroxylase-positive (TH-positive) neurons were counted using a Thermo Scientific Cellomics® ArrayScan® VTI HCS Reader. Results were normalized against control condition and compared. Experiments were only included in the evaluation if at least 30% cell death was induced at the highest toxin concentration compared to non-treated control wells. To ensure that only healthy primary cultures were assessed, we furthermore excluded experiments with total cell counts below Mean minus standard deviation (SD) of the summarized experiments. […]
To examine whether GPR139 agonists protect against toxin-induced DA cell death, we first treated cultured DA midbrain neurons with the GPR139 agonists and MPP^+ . Subsequently, we determined survival of TH-positive neurons.
Figure 8 Three different GPR139 surrogate agonists protect primary dopaminergic (DA) midbrain neurons against 1-methyl-4-phenyl-pyridinium ionMPP^+ toxicity. […] TH-positive neurons were counted and normalized to numbers under control conditions. […] Each data point is calculated from 12 (0 μM and 1 μM MPP^+ concentrations); 4 (0.125 μM); 7 (0.25 μM); or 8 (0.5 μM) independent measurements.
Primary midbrain cultures were pretreated with the indicated amount of GPR139 agonist compound 3 and with either vehicle ( [drawing 5] ), or 1 μM MPP^+ ( [drawing 6] ); or MPP^+ with 10 μM of the antagonist compound 4 ( [drawing 7] ), or with the antagonist compound 4 alone ( [drawing 8] ). The number of TH-positive neurons was determined 24 h later and normalized to control conditions. […]

[9] = biological target: T1, human GPR139 receptor (Homo sapiens, UniProt Q6DWJ6); design: method as in Shi et al., 2011; conditions: Ca2+ mobilization; ref Shi et al., 2011; read-out: EC50 (GPR139 agonist); cited from earlier work
T1 construct: expressed in transfected cells; host or cells: CHO-K1
T1 sequence (Q6DWJ6 1-353): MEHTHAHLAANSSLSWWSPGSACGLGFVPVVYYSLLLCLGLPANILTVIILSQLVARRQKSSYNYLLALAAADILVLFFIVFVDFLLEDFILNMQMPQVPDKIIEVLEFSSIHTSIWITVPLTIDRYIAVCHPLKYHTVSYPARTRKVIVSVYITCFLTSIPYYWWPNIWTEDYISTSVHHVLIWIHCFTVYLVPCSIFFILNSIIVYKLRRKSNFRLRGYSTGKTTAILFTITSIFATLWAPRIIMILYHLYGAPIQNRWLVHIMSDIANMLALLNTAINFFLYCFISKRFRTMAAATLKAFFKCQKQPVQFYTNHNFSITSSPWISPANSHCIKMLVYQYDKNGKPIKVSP

[10] = design: method as in Shi et al., 2011; conditions: ref Shi et al., 2011; cited from earlier work
[11] = biological target: T1, human GPR139 receptor; test: GPR139 calcium mobilization assay (CHO-K1 cells stably expressing the receptor); format: cell-based; conditions: inhibition of agonist-induced stimulation (compound 1 at EC85); read-out: IC50 (GPR139 antagonist)
Experimental: EC50 and IC50 for all compounds were determined as described (Shi et al., [2011]).
All compounds were further characterized using GPR139-based Ca^2+ mobilization assays (Figure 5).
Figure 5 Additional characterization of GPR139 compounds using kinetic fluorescence measurements and concentration-response determination in calcium mobilization assays. (A–D) Examples for the kinetic of relative fluorescence units (RFU) for compound 1 and 4 and related controls, involving a two-step addition protocol. (A) Cellular fluorescence response to addition of buffer (approximately at time 0:00 min) and a second addition of buffer at 3:20 min. (B) Cellular fluorescence response to addition of the Ca^2+ ionophore and reference compound for complete release of Ca^2+ from intracellular stores, ionomycin. (C) Cellular response to addition of 10 μM compound 1 at time 0:00. (D) Cellular fluorescence in response to antagonist compound 4 (at 0:00, 50 μM) and addition of agonist compound 1 at EC85 concentration. […]
Standard molecular cloning techniques were used to generate Chinese hamster ovary (CHO-K1) cells stably expressing the human GPR139 receptor. […] Calcium flux was measured using a Hamamatsu FDSS7000 imaging-based plate reader (Hamamatsu Photonics) using 480 nm excitation light and emitted fluorescent light passed through a 525 nm emission filter and detected by a CCD camera. […]

Chain of DAT (Q01959 whole entry, species assumed): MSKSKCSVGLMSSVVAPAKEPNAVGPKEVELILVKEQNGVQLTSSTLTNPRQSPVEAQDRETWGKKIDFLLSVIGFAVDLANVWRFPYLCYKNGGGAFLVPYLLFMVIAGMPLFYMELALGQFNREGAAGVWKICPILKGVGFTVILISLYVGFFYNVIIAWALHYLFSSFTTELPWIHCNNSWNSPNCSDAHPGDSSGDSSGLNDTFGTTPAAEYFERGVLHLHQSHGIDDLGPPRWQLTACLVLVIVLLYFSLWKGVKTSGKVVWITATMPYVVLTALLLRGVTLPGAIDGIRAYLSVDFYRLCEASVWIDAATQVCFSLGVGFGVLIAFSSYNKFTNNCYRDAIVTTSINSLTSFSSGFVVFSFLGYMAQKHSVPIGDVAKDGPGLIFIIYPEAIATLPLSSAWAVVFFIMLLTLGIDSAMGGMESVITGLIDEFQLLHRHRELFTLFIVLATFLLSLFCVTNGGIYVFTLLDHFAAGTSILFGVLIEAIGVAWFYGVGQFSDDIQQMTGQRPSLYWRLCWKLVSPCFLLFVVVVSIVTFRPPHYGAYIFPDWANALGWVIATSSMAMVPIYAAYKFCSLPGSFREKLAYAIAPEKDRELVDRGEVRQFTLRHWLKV
Chain of norepinephrine transporter (P23975 whole entry, species assumed): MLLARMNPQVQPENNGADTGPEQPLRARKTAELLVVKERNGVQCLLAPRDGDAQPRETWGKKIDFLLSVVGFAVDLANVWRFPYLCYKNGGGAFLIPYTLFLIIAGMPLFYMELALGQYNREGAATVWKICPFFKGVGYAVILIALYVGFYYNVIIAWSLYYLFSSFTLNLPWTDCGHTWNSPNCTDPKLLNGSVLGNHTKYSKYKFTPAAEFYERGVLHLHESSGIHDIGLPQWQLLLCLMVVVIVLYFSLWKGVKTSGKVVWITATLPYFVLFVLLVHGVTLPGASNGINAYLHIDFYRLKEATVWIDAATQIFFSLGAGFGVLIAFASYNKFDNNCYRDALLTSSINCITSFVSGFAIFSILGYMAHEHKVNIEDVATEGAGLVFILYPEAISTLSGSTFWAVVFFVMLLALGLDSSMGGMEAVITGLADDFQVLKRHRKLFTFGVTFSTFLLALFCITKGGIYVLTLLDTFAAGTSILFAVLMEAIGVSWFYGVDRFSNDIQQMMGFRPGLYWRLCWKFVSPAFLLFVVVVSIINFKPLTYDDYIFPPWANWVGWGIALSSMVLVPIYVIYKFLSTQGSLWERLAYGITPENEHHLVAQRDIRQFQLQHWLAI

For NCCc1cc(O)c(O)cc1O [6-OHDA, 6-hydroxydopamine], the “concentration giving 50% cell death” value [1] is listed as 100 µM.

For COc1ccc(CCc2cc(OC)c(O)c(OC)c2)cc1OC [Chrysotoxine], the “antagonism of MPP+ toxicity” value [2] is listed as “could antagonize” and the “antagonism of rotenone toxicity” value [2] is listed as “not rotenone”.

In the case of C[n+]1ccc(-c2ccccc2)cc1 [MPP^+, 1-methyl-4-phenylpyridinium], the “concentration giving 50% cell death” value [1] is given as 5000 µM and the “average DA neuronal cell death” value ([3]; 1 μM MPP+) is given as 40%.

In the case of COc1cc(OC)cc(C(=O)NNC(=O)Nc2cccc3ccccc23)c1 [compound 1, 2-(3,5-Dimethoxybenzoyl)-N-(1-naphthyl)-hydrazinecarboxamide], the “inhibition of binding to the norepinephrine transporter” value [4] is listed as −8%, the “protection against 6-OHDA toxicity” value [5] is listed as “do not protect” and the “protection against rotenone toxicity” value [6] is listed as “do not protect”. For the same compound, the “inhibition of binding to the DAT” value [7] was 4%, the “protection against MPP+ toxicity” value ([8]; 1 μM agonist 1 h, 1 μM MPP+ 24 h, p ≤ 0.05 vs vehicle) was “significant” and the EC50 [9] was 0.039 µM. For the same compound, the “ADME properties for in vivo testing” value [10] was “does not hold the ADME properties necessary for in vivo testing”.

In the case of Cc1c(CC(Cl)(Cl)Cl)c2c(n1-c1ccc(F)cc1)CCCC2=O [compound 4, 1-(4-Fluoro-phenyl)-2-methyl-3-(2,2,2-trichloro-ethyl)-1,5,6,7-tetrahydro-indol-4-one, reference compound], the IC50 [11] is reported as 7.4 µM and 3 µM, the “effect of antagonist on protection by the agonists against MPP+” value ([8]; 10 μM antagonist co-applied with agonist, 1 μM MPP+) is reported as “blocked the protective effect” and the “effect of antagonist alone on DA cell survival” value ([8]; 10 μM antagonist, no MPP+) is reported as “did not have an effect”.

In the case of C=C(C)[C@H]1Cc2c(ccc3c2O[C@@H]2COc4cc(OC)c(OC)cc4[C@@H]2C3=O)O1 [rotenone], the “concentration giving 50% cell death” value [1] is given as 0.005 µM and the “average DA neuronal cell death” value ([3]; 100 nM rotenone) is given as 60%.
